“And” between values parts separate entries of the source, which are not always exact repeats. Equal entries are not always repeated.
Target: T1, PfCRT^Dd2 (Plasmodium falciparum, UniProt Q8IBZ9, A220S/I356T/K76T/M74I/N326S/N75E/Q271E/R371I)
T1 sequence (Q8IBZ9 1-424 M74I/N75E/K76T/A220S/Q271E/N326S/I356T/R371I): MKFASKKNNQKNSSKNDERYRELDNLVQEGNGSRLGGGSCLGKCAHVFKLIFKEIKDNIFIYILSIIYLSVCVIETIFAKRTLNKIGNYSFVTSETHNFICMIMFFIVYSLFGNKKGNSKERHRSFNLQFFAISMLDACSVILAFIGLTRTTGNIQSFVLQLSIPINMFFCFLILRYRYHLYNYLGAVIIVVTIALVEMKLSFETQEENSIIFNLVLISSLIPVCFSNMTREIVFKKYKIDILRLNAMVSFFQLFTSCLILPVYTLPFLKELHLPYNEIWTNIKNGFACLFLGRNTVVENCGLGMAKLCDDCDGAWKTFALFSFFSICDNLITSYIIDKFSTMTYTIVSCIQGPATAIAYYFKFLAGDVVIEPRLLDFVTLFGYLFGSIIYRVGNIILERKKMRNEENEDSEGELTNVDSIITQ
Test: Competition kinetics of drug transport (radiolabeled substrate plus cold inhibitor), PfCRT^Dd2-expressing oocytes
Assay type: cell-based
Parameters: expressed in transfected cells; host or cells: Xenopus laevis oocytes injected with in vitro transcribed RNA (pSP64T)
Details: single replicates
Method: The experimental procedure and the data analysis were as described above.
The difference between the two models lies in the value of α, a parameter describing how much the affinity for the substrate changes when the inhibitor is already bound, and vice versa. […] The resulting Vmax,app values and the Vmax,app/KM,app ratios were plotted as a function of the inhibitor concentration (Fig 5A).
Drug transport assays were performed as previously described. Briefly, measurements of radiolabeled drug uptake were made over 1 h, unless otherwise specified. […] Where specified, one or more unlabeled drugs were also present at the indicated concentrations. […] The uptake assays were terminated by removing the oocytes from the reaction medium and washing them three times with 2 mL of ice-cold ND96 buffer. Each oocyte was transferred to a separate scintillation vial and lysed by the addition of 200 μL of a 5% SDS solution. The radioactivity in the sample was measured using a liquid scintillation analyser Tri-Carb 4910 TR (PerkinElmer). Water-injected oocytes were analyzed in parallel as a negative control. The buffer from each condition was measured in duplicate in parallel to each experiment to transform counts per minute into pmol of drug. Drug uptake attributable to PfCRT was determined by subtracting the background uptake from water-injected oocytes from that of PfCRT-expressing oocytes. In all cases, at least three independent experiments were performed on oocytes from different frogs, and for each condition in an experiment, measurements were made from 10 oocytes per treatment.
The following equations were adopted from Segel (1993), and the reader is referred to that text for the assumptions made in the author’s approach in the derivation of each equation [31]. The concentration of substrate is denoted as [S1] and the concentration of the inhibiting substrate is denoted as [S2]. KS1 and KS2 are the dissociation constants for the respective substrate-protein complexes.
Analyses of the kinetic data were performed using SigmaPlot version 13.0 and Python. The drug competition models were globally fit to the kinetic data using the least-squares method and ranked according to their corrected Akaike information criterion difference (ΔAICC) and their Akaike weight, using Python. The two top-ranked models were compared using an F-test.
This factor reflects how much the affinity of the transporter for one drug changes when the other drug is already bound in the protein cavity. In the former model, α > 0 and α ≠ 1. In the latter model, it could be thought of as if α = 1. Because of this, discriminating between the two models also means determining the value of α. In Mixed-type (Partial) inhibition, the apparent maximal velocity (Vmax,app) is given by Eq 22, Vmax,app=Vmax(1+β[S2]/αKS2)/(1+[S2]/αKS2) (Eq 22)
Vmax,app is the maximal rate of substrate transport at a certain inhibitor concentration. The half-maximal inhibitory concentration is given by the term in the denominator different from [S2], which in this case is αKS2. This means that by plotting Vmax,app as a function of [S2], the value of αKS2 can be derived after fitting the curve to Eq 23.
The half-maximal inhibitory concentration derived from this hyperbolic equation is equal to KS2. By plotting Vmax,app/KM,app as a function of [S2], one can derive KS2 after fitting the curve to Eq 25. The value of α can then be calculated dividing αKS2 by KS2.

## Clc1ccc2c(N3CCN(CCCN4CCN(c5ccnc6cc(Cl)ccc56)CC4)CC3)ccnc2c1 [PPQ, piperaquine]
0 µM CQ
  PfCRTDd2-mediated PPQ transport 10 µM PPQ: 7.56 pmol oocyte-1 h-1 and 10.37 pmol oocyte-1 h-1 and 9.52 pmol oocyte-1 h-1
  PfCRTDd2-mediated PPQ transport 50 µM PPQ: 28.14 pmol oocyte-1 h-1 and 21.87 pmol oocyte-1 h-1 and 89.78 pmol oocyte-1 h-1 and 46.28 pmol oocyte-1 h-1 and 30.01 pmol oocyte-1 h-1 and 33.33 pmol oocyte-1 h-1
  PfCRTDd2-mediated PPQ transport 100 µM PPQ: 59.97 pmol oocyte-1 h-1 and 33.72 pmol oocyte-1 h-1 and 64.52 pmol oocyte-1 h-1
  PfCRTDd2-mediated PPQ transport 200 µM PPQ: 87.13 pmol oocyte-1 h-1 and 109.05 pmol oocyte-1 h-1 and 57.84 pmol oocyte-1 h-1
  PfCRTDd2-mediated PPQ transport 300 µM PPQ: 90.42 pmol oocyte-1 h-1 and 110.91 pmol oocyte-1 h-1 and 77.44 pmol oocyte-1 h-1
  PfCRTDd2-mediated PPQ transport 400 µM PPQ: 113.37 pmol oocyte-1 h-1 and 109.88 pmol oocyte-1 h-1 and 74.49 pmol oocyte-1 h-1
  PfCRTDd2-mediated PPQ transport 500 µM PPQ: 118.94 pmol oocyte-1 h-1 and 82.44 pmol oocyte-1 h-1 and 112.35 pmol oocyte-1 h-1
25 µM CQ
  PfCRTDd2-mediated PPQ transport 10 µM PPQ: 5.90 pmol oocyte-1 h-1 and 7.56 pmol oocyte-1 h-1 and 12.12 pmol oocyte-1 h-1
  PfCRTDd2-mediated PPQ transport 50 µM PPQ: 38.92 pmol oocyte-1 h-1 and 37.28 pmol oocyte-1 h-1 and 39.83 pmol oocyte-1 h-1
  PfCRTDd2-mediated PPQ transport 100 µM PPQ: 49.79 pmol oocyte-1 h-1 and 57.28 pmol oocyte-1 h-1 and 48.06 pmol oocyte-1 h-1
  PfCRTDd2-mediated PPQ transport 200 µM PPQ: 75.61 pmol oocyte-1 h-1 and 76.21 pmol oocyte-1 h-1 and 79.18 pmol oocyte-1 h-1
  PfCRTDd2-mediated PPQ transport 300 µM PPQ: 75.46 pmol oocyte-1 h-1 and 93.24 pmol oocyte-1 h-1 and 86.36 pmol oocyte-1 h-1
  PfCRTDd2-mediated PPQ transport 400 µM PPQ: 93.45 pmol oocyte-1 h-1 and 86.08 pmol oocyte-1 h-1 and 106.77 pmol oocyte-1 h-1
  PfCRTDd2-mediated PPQ transport 500 µM PPQ: 95.67 pmol oocyte-1 h-1 and 107.56 pmol oocyte-1 h-1 and 100.57 pmol oocyte-1 h-1
50 µM CQ
  PfCRTDd2-mediated PPQ transport 10 µM PPQ: 9.48 pmol oocyte-1 h-1 and 7.04 pmol oocyte-1 h-1 and 8.33 pmol oocyte-1 h-1
  PfCRTDd2-mediated PPQ transport 50 µM PPQ: 39.65 pmol oocyte-1 h-1 and 31.99 pmol oocyte-1 h-1 and 26.06 pmol oocyte-1 h-1
  PfCRTDd2-mediated PPQ transport 100 µM PPQ: 52.12 pmol oocyte-1 h-1 and 55.31 pmol oocyte-1 h-1 and 42.70 pmol oocyte-1 h-1
  PfCRTDd2-mediated PPQ transport 200 µM PPQ: 78.47 pmol oocyte-1 h-1 and 73.08 pmol oocyte-1 h-1 and 76.77 pmol oocyte-1 h-1
  PfCRTDd2-mediated PPQ transport 300 µM PPQ: 67.98 pmol oocyte-1 h-1 and 93.33 pmol oocyte-1 h-1 and 91.69 pmol oocyte-1 h-1
  PfCRTDd2-mediated PPQ transport 400 µM PPQ: 86.04 pmol oocyte-1 h-1 and 73.87 pmol oocyte-1 h-1 and 103.05 pmol oocyte-1 h-1
125 µM CQ
  PfCRTDd2-mediated PPQ transport 10 µM PPQ: 5.75 pmol oocyte-1 h-1 and 8.54 pmol oocyte-1 h-1 and 9.92 pmol oocyte-1 h-1
  PfCRTDd2-mediated PPQ transport 50 µM PPQ: 26.33 pmol oocyte-1 h-1 and 27.41 pmol oocyte-1 h-1 and 34.41 pmol oocyte-1 h-1
  PfCRTDd2-mediated PPQ transport 100 µM PPQ: 58.54 pmol oocyte-1 h-1 and 43.73 pmol oocyte-1 h-1 and 42.26 pmol oocyte-1 h-1
  PfCRTDd2-mediated PPQ transport 200 µM PPQ: 74.89 pmol oocyte-1 h-1 and 84.24 pmol oocyte-1 h-1 and 63.70 pmol oocyte-1 h-1
  PfCRTDd2-mediated PPQ transport 300 µM PPQ: 84.14 pmol oocyte-1 h-1 and 87.90 pmol oocyte-1 h-1 and 73.92 pmol oocyte-1 h-1
  PfCRTDd2-mediated PPQ transport 400 µM PPQ: 77.98 pmol oocyte-1 h-1 and 81.70 pmol oocyte-1 h-1 and 88.40 pmol oocyte-1 h-1
200 µM CQ
  PfCRTDd2-mediated PPQ transport 10 µM PPQ: 6.96 pmol oocyte-1 h-1 and 8.23 pmol oocyte-1 h-1 and 6.73 pmol oocyte-1 h-1
  PfCRTDd2-mediated PPQ transport 50 µM PPQ: 26.27 pmol oocyte-1 h-1 and 27.81 pmol oocyte-1 h-1 and 32.81 pmol oocyte-1 h-1
  PfCRTDd2-mediated PPQ transport 100 µM PPQ: 53.47 pmol oocyte-1 h-1 and 42.58 pmol oocyte-1 h-1 and 43.06 pmol oocyte-1 h-1
  PfCRTDd2-mediated PPQ transport 200 µM PPQ: 63.70 pmol oocyte-1 h-1 and 74.56 pmol oocyte-1 h-1 and 71.51 pmol oocyte-1 h-1
  PfCRTDd2-mediated PPQ transport 300 µM PPQ: 93.36 pmol oocyte-1 h-1 and 73.07 pmol oocyte-1 h-1 and 56.74 pmol oocyte-1 h-1 and 73.66 pmol oocyte-1 h-1
  PfCRTDd2-mediated PPQ transport 400 µM PPQ: 78.64 pmol oocyte-1 h-1 and 88.68 pmol oocyte-1 h-1 and 77.87 pmol oocyte-1 h-1
400 µM CQ
  PfCRTDd2-mediated PPQ transport 10 µM PPQ: 6.34 pmol oocyte-1 h-1 and 7.80 pmol oocyte-1 h-1 and 6.93 pmol oocyte-1 h-1
  PfCRTDd2-mediated PPQ transport 50 µM PPQ: 19.16 pmol oocyte-1 h-1 and 25.87 pmol oocyte-1 h-1 and 24.41 pmol oocyte-1 h-1
  PfCRTDd2-mediated PPQ transport 100 µM PPQ: 44.21 pmol oocyte-1 h-1 and 36.58 pmol oocyte-1 h-1 and 41.48 pmol oocyte-1 h-1
  PfCRTDd2-mediated PPQ transport 200 µM PPQ: 58.65 pmol oocyte-1 h-1 and 62.98 pmol oocyte-1 h-1 and 61.98 pmol oocyte-1 h-1
  PfCRTDd2-mediated PPQ transport 300 µM PPQ: 91.78 pmol oocyte-1 h-1 and 67.51 pmol oocyte-1 h-1 and 51.42 pmol oocyte-1 h-1
  PfCRTDd2-mediated PPQ transport 400 µM PPQ: 83.22 pmol oocyte-1 h-1 and 67.13 pmol oocyte-1 h-1 and 69.51 pmol oocyte-1 h-1
